Measurements as given in US9840478B2 (MERCK SHARP & DOHME CORP., priority 2013, dated 2017).

How the values were obtained:
wildtype HIV-1 protease = target: T1, wildtype HIV-1 protease (Human immunodeficiency virus type 1 group M subtype B, UniProt P04585); assay: Assay for inhibition of microbial expressed HIV protease (Pepcleav); type: biochemical; conditions: wildtype HIV-1 protease expressed in E. coli; peptide substrate; mean of at least two independent experiments
T1 construct: preincubated with the HIV-1 protease (wild type) enzyme in assay buffer; made in house; host or cells: Escherichia coli
Protocol: Assay for Inhibition of Microbial Expressed HIV Protease (“Pepcleav”)
Studies of the inhibition of the wildtype HIV-1 protease (which was expressed in Escherichia coli) were carried out with a peptide substrate [Val-Ser-Gln-Asn-(βnaphtyl)Ala-Pro-Ile-Val]. The inhibitor is first preincubated with the HIV-1 protease (wild type) enzyme in assay buffer (50 mM sodium acetate, pH 5.5, 100 mM NaCl, and 0.1% BSA) for 30 minutes at room temperature. Substrate is added to 400 micromolar in a total volume of 20 microliters containing 20 picomolar HIV-1 protease (final) and the reaction is incubated for 1 hour at 30° C. The reaction is quenched with the addition of formic acid and indinavir to 0.012% and 150 nM final concentrations, respectively. The product formation is determined after separation of product and substrate on a Zorbax Eclipse XDB-C18 column connected to an API 4000 mass spectrometer (Applied Biosystems) with multiple reaction monitoring (transitions were 644.5/428.9 and 615.4/422.2 (M1/M3) for product and indinavir respectively). The extent of inhibition of the reaction is determined from the peak area of the products. Analysis of the products, independently synthesized, provided quantitation standards and confirmation of the product composition.

HIV-1 (H9IIIB strain) = assay: Cell-based HIV infection assay using a reporter (Cell-Based), MT4-GFP cells; conditions: Human immunodeficiency virus 1, MT4-GFP cells infected with HIV-1 H9IIIB; 50% normal human serum; mean of at least two independent experiments; read-out: Cell-based IP
In short: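 IC50 from 4-parameter dose-response of % viral growth inhibition, using the 48 h/24 h infected-cell ratio scaled between DMSO and a protease/integrase/NNRTI triple-drug control. Assay used MT4 cells with HIV-LTR-GFP reporter, pre-infected 24 h with HIV-1 H9IIIB, in 50% normal human serum.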

Row | Compound | IC50 (wildtype HIV-1 protease) [µM] | IC50 (HIV-1 (H9IIIB strain)) [µM]
1 | CS(=O)(=O)NC1CCN(S(=O)(=O)N2CCNC[C@@H]2CCc2c(F)cncc2NC(=O)C[C@@H](c2ccc(F)cc2)c2cc(F)cc(F)c2)CC1 [Example 334, (3S)-3-(3,5-difluorophenyl)-N-(5-fluoro-4-{2-[(2S)-1-({4-[(methylsulfonyl)amino]piperidin-1-yl}sulfonyl)piperazin-2-yl]ethyl}pyridin-3-yl)-3-(4-fluorophenyl)propanamide] | 0.01 | 0.45
2 | CC(=O)NC1CCN(S(=O)(=O)N2CCNC[C@@H]2CCc2c(F)cncc2NC(=O)C[C@@H](c2ccc(F)cc2)c2cc(F)cc(F)c2)CC1 [Example 335, (3S)-N-(4-{2-[(2S)-1-{[4-(acetylamino)piperidin-1-yl]sulfonyl}piperazin-2-yl]ethyl}-5-fluroopyridin-3-yl)-3-(3,5-difluorophenyl)-3-(4-fluorophenyl)propanamide] | 0.024 | 0.65
3 | CS(=O)(=O)C1CCN(S(=O)(=O)N2CCNC[C@@H]2CCc2c(F)cncc2NC(=O)C[C@@H](c2ccc(F)cc2)c2cc(F)cc(F)c2)CC1 [Example 336, (3S)-3-(3,5-difluorophenyl)-N-(5-fluoro-4-{2-[(2S)-1-{[4-(methylsulfonyl)piperidin-1-yl]sulfonyl}piperazin-2-yl]ethyl}pyridin-3-yl)-3-(4-fluorophenyl)propanamide] | 0.013 | 0.24
4 | O=C(C[C@@H](c1ccc(F)cc1)c1cc(F)cc(F)c1)Nc1cncc(F)c1CC[C@H]1CNCCN1S(=O)(=O)N1CC[C@@H](NC(=O)C(F)(F)F)C1 [Example 338, (3S)-3-(3,5-difluorophenyl)-3-(4-fluorophenyl)-N-(5-fluoro-4-{2-[(2S)-1-({(3R)-3-[(trifluoroacetyl)amino]pyrrolidin-1-yl}sulfonyl)piperazin-2-yl]ethyl}pyridin-3-yl)propanamide] | 0.13 | 0.66
